Data reported in patent publication US20050119289A1 (priority 2002, published 2005).
≈ marks a conversion by molar mass, not a printed value. Read-outs that look alike come from different tables or passages of the source.

Columns and labels:
[1] = tested on: HeL023 cells; experiment: Flow cytometry analysis of G2/M accumulation and sub-G1 apoptosis, HeL023; format: cell-based, human; settings: for EC50: Homo sapiens
Experimental: (§1) A375 and NCTC2544 adherent cells were trypsinized, mixed with floating cells, washed with PBS and permeabilised in 70% (vol/vol) ethanol/PBS solution at 4° C. for at least 24 hours. Jurkat, HeL023 and PBMC cells were centrifuged for 10 minutes at 1000×g. The cell pellet was then resuspended and permeabilised in 70% (vol/vol) ethanol/PBS solution at 4° C. for at least 24 hours. The cells were washed with PBS and the DNA was stained with a PBS solution, containing 20 μg/ml of propidium iodide and 100 μg/ml of RNAse, at room temperature for 30 minutes. Cells were analysed by FACScan (Becton-Dickinson) and the content of DNA was evaluated by the Cell-LISYS program (Becton-Dickinson). Cell distribution among cell cycle phases and apoptotic cells was evaluated as previously described (Secchiero et al., 2001). Briefly, the cell cycle distribution is shown as the percentage of cells containing 2n (G1 phase), 4n (G2 and M phases), 4n>x>2n. DNA amount (S phase) judged by propidium iodide staining. The apoptotic population is the percentage of cells with DNA content lower than 2n.
(§2) To verify the role of A3 receptor antagonists on paclitaxel and vindesine mediated alteration of cell proliferation and apoptosis, testing was performed with additional cell lines. […] Experimental conditions are similar to those for the A375 cell testing.
(§3) EC50 values were obtained by analysing G2/M accumulation dose response curve. ECMAXvalues were obtained by analysing sub-G1 accumulation dose response curve. Paclitaxel values have units of ng/ml. Vindesine values have units of nM. nd: not done.

[2] = tested on: NCTC2544 cells; experiment: Flow cytometry analysis of G2/M accumulation and sub-G1 apoptosis, NCTC 2544; format: cell-based, human; settings: for EC50: Homo sapiens, NCTC-2544, NCTC 2544; for ECMAX (sub-G1 accumulation): NCTC 2544
Experimental: as §1, §2, §3

[3] = tested on: PBMC blasts; experiment: Flow cytometry analysis of G2/M accumulation, PBMC; format: cell-based; settings: Homo sapiens, vindesine with MRE3008F20 10 μM
Experimental: For multi-drug resistance testing, A375 and NCTC2544 cells are grown adherently and maintained in DMEM and EMEM medium, respectively, containing 10% fetal calf serum, penicillin (100 U/ml), streptomycin (100 μg/ml), L-glutamine (2 mM) at 37° C. in 5% CO2/95% air. HeL023 and Jurkat were grown in RPMI-1640 medium, containing 10% fetal calf serum, penicillin (100 U/ml), streptomycin (100 μg/ml), L-glutamine (2 mM) at 37° C. in 5% CO2/95% air. Cells are passaged two or three times weekly at a ratio between 1:5 and 1:10. Lymphocytes were isolated from buffy coats kindly provided by the Blood Bank of the University Hospital of Ferrara. Blood donated by healthy volunteers, after informed consent for research was obtained. Lymphocytes were isolated by density gradient centrifugation (Ficoll/Histopaque 1.077 g/ml). […]
A375 and NCTC2544 adherent cells were trypsinized, mixed with floating cells, washed with PBS and permeabilised in 70% (vol/vol) ethanol/PBS solution at 4° C. for at least 24 hours. […] Cells were analysed by FACScan (Becton-Dickinson) and the content of DNA was evaluated by the Cell-LISYS program (Becton-Dickinson). Cell distribution among cell cycle phases and apoptotic cells was evaluated as previously described (Secchiero et al., 2001). […]

[4] = tested on: A375 cells; experiment: Flow cytometry analysis of G2/M accumulation and sub-G1 apoptosis, A375; format: cell-based, human; settings: for EC50: Homo sapiens, A-375
Experimental: as §1
Cell proliferation and apoptosis are quantified by flow cytometer analysis after propidium-iodide (PI) DNA staining. At 24 hours post-exposure, paclitaxel and vindesine induced a dose dependent cell accumulation into G2/M cell cycle phases and a parallel decrease of the G1 population.
as §3

[5] = tested on: Jurkat cells; experiment: Flow cytometry analysis of G2/M accumulation and sub-G1 apoptosis, Jurkat; format: cell-based, human; settings: for EC50: Homo sapiens
Experimental: as §1, §2, §3

[6] = tested on: human lung carcinoma SKMES cell line; experiment: MTT growth inhibitory assay, SKMES; format: cell-based; settings: SKMES cells, read-out: IC50 of anti-neoplastic agent used jointly with A3 antagonist
Text: (§4) The cells are sub-cultured twice a week.

[7] = tested on: human colon carcinoma HT29 cell line; experiment: MTT growth inhibitory assay, HT29; format: cell-based; settings: Homo sapiens, HT-29, HT29 cells, read-out: IC50 of anti-neoplastic agent used jointly with A3 antagonist
Text: as §4

[8] = tested on: human melanoma A375 cell line; experiment: MTT growth inhibitory assay, A375
Experimental: (§5) For chemotherapeutic enhancement testing, the human melanoma A375, human lung carcinoma SKMES, colon carcinoma HT29, and pancreatic cancer Panc-1 cell lines were originally obtained from the ATCC (American Type Culture Collection) and have been maintained at PRC. […] The cells are cultured in a T25 Falcon Tissue Culture flask in a humidified incubator at 37° C. with 5% CO2-95% air. The cells are sub-cultured twice a week. The doubling times of A375, SKMES, HT29, and Panc-1 cultures are approximately 22, 46, 48, and 60 hr, respectively.
(§6) One of the growth inhibitory assays is the MTT assay. Cells (1000-1500 cells/well) are seeded in a 96-well micro culture plate in a total volume of 100 μl/well. After overnight incubation in a humidified incubator at 37° C. with 5% CO2-95% air, chemotherapeutic drug solutions diluted with culture medium at various concentrations are added in the amount of 100 μl to each well. The plates are placed in a humidified incubator at 37° C. with 5% CO2-95% air for 7-10 days. The plates are then centrifuged briefly and 100 μl of the growth medium is removed. Cell cultures are incubated with 50 μl of MTT [3-(4,5-dimethylthiazol-2-yl)-2,5-diphenyl-tetrazolium bromide] reagent (1 mg/ml in Dulbecco's phosphate-buffered saline) for 4 hr at 37° C. The resultant purple formazan precipitate is solubilized with 200 μl of 0.04 N HCl in isopropanol. Absorbance is measured at a wavelength of 595 nm and at a reference wavelength of 655 nm using a Bio-Rad Model 3550 Microplate Reader. Preferably, all tests are run in duplicate for each dose level.
(§7) The EZED50 computer program estimates the concentration of agent that inhibits cell growth by 50% as compared to the control cells. This is termed the IC50 and is determined by curve fitting test data using the following four logistic equation.
(§8) Inhibitory assay testing is also used to determine enhanced therapeutic effects from combining A3 receptor antagonists with other tumor inhibiting agents. The inhibitory cell growth assays are run with and without selected concentrations of A3 receptor antagonists. An enhanced therapeutic effect is present when the IC50 of the tumor inhibiting agent is lower with the A3 receptor antagonist.
(§9) Quantitatively, the enhancement factor (EF) is calculated by dividing the IC50 value of the tumor inhibiting agent for a tumor cell line by the IC50 value of the agent with A3 receptor antagonist for the same cell line: [formula]

[9] = tested on: human pancreatic cancer Panc-1 cell line; experiment: MTT growth inhibitory assay, Panc-1; format: cell-based; settings: PANC-1, Panc-1 cells, read-out: IC50 of anti-neoplastic agent used jointly with A3 antagonist
Experimental: as §5, §6, §7, §8, §9

[10] = tested on: human melanoma A375 cell line
Experimental: as §5, §6, §7, §8, §9

[11] = target: rA2A adenosine receptor (Rattus norvegicus, UniProt P30543); experiment: Binding affinity at rA2A adenosine receptors
rA2A adenosine receptor, sequence (P30543 whole entry): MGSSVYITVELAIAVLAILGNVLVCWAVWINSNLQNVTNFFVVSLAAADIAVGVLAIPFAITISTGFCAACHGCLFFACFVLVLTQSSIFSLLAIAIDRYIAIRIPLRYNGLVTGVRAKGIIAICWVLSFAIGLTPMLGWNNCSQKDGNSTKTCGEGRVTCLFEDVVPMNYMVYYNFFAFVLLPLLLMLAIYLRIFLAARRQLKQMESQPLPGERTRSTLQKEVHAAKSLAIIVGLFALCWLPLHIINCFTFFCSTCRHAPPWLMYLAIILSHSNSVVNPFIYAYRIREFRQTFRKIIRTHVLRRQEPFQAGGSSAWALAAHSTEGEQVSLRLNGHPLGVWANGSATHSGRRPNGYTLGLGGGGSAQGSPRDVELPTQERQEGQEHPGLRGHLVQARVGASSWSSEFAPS

[12] = target: T1, rA1 adenosine receptor (Rattus norvegicus, UniProt P25099); experiment: Binding affinity at rA1 adenosine receptors
T1 sequence (P25099 1-326): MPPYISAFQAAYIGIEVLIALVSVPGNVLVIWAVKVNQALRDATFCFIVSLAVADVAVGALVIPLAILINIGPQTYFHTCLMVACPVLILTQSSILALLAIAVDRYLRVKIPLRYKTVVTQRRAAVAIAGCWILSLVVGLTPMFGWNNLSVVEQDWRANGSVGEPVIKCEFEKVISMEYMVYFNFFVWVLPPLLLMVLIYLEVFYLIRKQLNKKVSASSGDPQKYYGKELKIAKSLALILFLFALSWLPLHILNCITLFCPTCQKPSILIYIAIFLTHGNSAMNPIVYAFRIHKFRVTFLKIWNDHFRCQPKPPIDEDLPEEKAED

[13] = docetaxel administered at 100 mg/m^2; cited from earlier work
[14] = vindesine with MRE3008F20 10 μM
[15] = paclitaxel with MRE3008F20 10 μM
[16] = A-375, read-out: IC50 of anti-neoplastic agent used jointly with A3 antagonist, A375 cells, with IL-10 0.5 μg/ml
[17] = A-375, read-out: IC50 of anti-neoplastic agent used jointly with A3 antagonist, A375 cells, with IL-10 5 μg/ml
[18] = A-375, read-out: IC50 of anti-neoplastic agent used jointly with A3 antagonist, A375 cells, with IL-10 […]
[19] = A-375, read-out: IC50 of anti-neoplastic agent used jointly with A3 antagonist, A375 cells, with IL-11 0.5 μg/ml
[20] = A-375, read-out: IC50 of anti-neoplastic agent used jointly with A3 antagonist, A375 cells, with IL-11 5 μg/ml
[21] = A-375, read-out: IC50 of anti-neoplastic agent used jointly with A3 antagonist, A375 cells, with MRE3008F20 1 μg/ml
[22] = A-375, read-out: IC50 of anti-neoplastic agent used jointly with A3 antagonist, A375 cells, with MRE3008F20 3 μg/ml
[23] = A-375, read-out: IC50 of anti-neoplastic agent used jointly with A3 antagonist, A375 cells, with MRE3008F20 10 μg/ml

| SMILES | EC50 [4] | IC50 ([6]; with IL-10 0.5 μg/ml) [ng/mL] | IC50 ([6]; with IL-11 0.5 μg/ml) [ng/mL] | IC50 ([6]; with MRE3008F20 1 μg/ml) [ng/mL] | IC50 ([7]; with IL-10 0.5 μg/ml) [ng/mL] | IC50 ([7]; with IL-11 0.5 μg/ml) [ng/mL] | IC50 ([7]; with MRE3008F20 1 μg/ml) [ng/mL] | IC50 [8, 16] [ng/mL] | IC50 [8, 17] [ng/mL] | IC50 [8, 18] [ng/mL] | IC50 [8, 19] [ng/mL] | IC50 [8, 20] [ng/mL] | IC50 [8, 21] [ng/mL] | IC50 [8, 22] [ng/mL] | IC50 [8, 23] [ng/mL] | IC50 ([9]; with IL-10 0.5 μg/ml) [ng/mL] | IC50 ([9]; with IL-11 0.5 μg/ml) [ng/mL] | IC50 ([9]; with MRE3008F20 1 μg/ml) [ng/mL] | IC50 [10] [ng/mL] | also measured |
| --- | --- | --- | --- | --- | --- | --- | --- | --- | --- | --- | --- | --- | --- | --- | --- | --- | --- | --- | --- | --- |
| CC[C@]1(O)C[C@@H]2CN(CCc3c([nH]c4ccccc34)[C@@](C(=O)OC)(c3cc4c(cc3OC)N(C)[C@H]3[C@@](O)(C(N)=O)[C@H](O)[C@]5(CC)C=CCN6CC[C@]43[C@@H]65)C2)C1 [vindesine] | 0.48 ± 0.05 nM |  |  |  |  |  |  |  |  |  |  |  |  |  |  |  |  |  |  | EC50 [1, 14]: 0.71 ± 0.08 nM; ECMAX (sub-G1 accumulation) [1, 14]: 1.05 ± 0.09 nM; EC50 [2, 14]: 0.51 ± 0.06 nM; ECMAX (sub-G1 accumulation) [2, 14]: 1.34 ± 0.15 nM; ECMAX (sub-G1 accumulation) ([2]; vindesine, DMSO (no antagonist)): 2.50 ± 0.27 nM; EC50 [3]: 0.86 ± 0.09 nM; ECMAX, concentration exerting the maximal apoptosis (sub-G1) ([4]; A375, vindesine with MRE3008F20 10 μM): 1.66 ± 0.20 nM; EC50 [5, 14]: 0.37 ± 0.04 nM |
| CC(=O)O[C@H]1C(=O)[C@@]2(C)[C@H]([C@H](OC(=O)c3ccccc3)[C@]3(O)C[C@H](OC(=O)[C@H](O)[C@@H](NC(=O)c4ccccc4)c4ccccc4)C(C)=C1C3(C)C)[C@]1(OC(C)=O)CO[C@@H]1C[C@@H]2O [paclitaxel] | 8.6 ± 0.81 ng/mL | 1.2 (≈ 1.41 nM) | 0.78 (≈ 0.913 nM) | 0.8 (≈ 0.937 nM) | 1 (≈ 1.17 nM) | 0.99 (≈ 1.16 nM) | 0.85 (≈ 0.995 nM) | 1.2 (≈ 1.41 nM) | 0.5 (≈ 0.586 nM) | 0.61 (≈ 0.714 nM) | 1.4 (≈ 1.64 nM) | 0.4 (≈ 0.468 nM) | 0.59 (≈ 0.691 nM) | 0.66 (≈ 0.773 nM) | 0.54 (≈ 0.632 nM) | 1.7 (≈ 1.99 nM) | 1.6 (≈ 1.87 nM) | 1.5 (≈ 1.76 nM) | 0.67 (≈ 0.785 nM) | EC50 [1, 15]: 4.1 ± 0.4 ng/mL; ECMAX (sub-G1 accumulation) [1, 15]: 3.19 ± 0.30 ng/mL; EC50 [2, 15]: 2.41 ± 0.3 ng/mL; ECMAX (sub-G1 accumulation) [2, 15]: 2.55 ± 0.24 ng/mL; IC50 ([8]; A-375, read-out: IC50 of paclitaxel plus MRE3008F20, IL-10, and IL-11, A375, with 10 μg/ml of MRE3008F20 or 5 μg/ml of IL-10 or IL-11): 0.4 to 0.54 ng/mL; percentage of apoptotic cells, maximum value ([4]; A375, paclitaxel at 5 ng/ml, range on different experiments): 35 to 53%; ECMAX, concentration exerting the maximal apoptosis (sub-G1) ([4]; A375, paclitaxel with MRE3008F20 10 μM): 3.04 ± 0.32 ng/mL; ECMAX, concentration exerting the maximal apoptosis (sub-G1) ([4]; A375, paclitaxel, DMSO (no antagonist)): 6.00 ± 0.63 ng/mL; EC50, G2/M accumulation ([4]; A375, paclitaxel, DMSO (no antagonist), 24 hours): 16.60 ± 2.00 ng/mL (≈ 19.4 nM); EC50 [5, 15]: 2.52 ± 0.3 ng/mL; ECMAX (sub-G1 accumulation) [5, 15]: 2.29 ± 0.31 ng/mL |
| CN(C)c1ccc(NC(=O)Nc2nc3nn(C)cc3c3nc(-c4ccco4)nn23)cc1 [IL-11, N-1-(4-dimethylamino-phenyl)-N′-5-[8-methyl-2-(2-furyl)-pyrazolo[4,3-e]1,2,4-triazolo[1,5-c]pyrimidine]-urea] |  |  |  |  |  |  |  |  |  |  |  |  |  |  |  |  |  |  |  | Ki [11]: > 10000 nM; Ki [12]: > 10000 nM |
| CC(=O)O[C@@]12CO[C@@H]1C[C@H](O)[C@@]1(C)C(=O)[C@H](O)C3=C(C)[C@@H](OC(=O)[C@H](O)[C@@H](NC(=O)OC(C)(C)C)c4ccccc4)C[C@@](O)([C@@H](OC(=O)c4ccccc4)[C@H]21)C3(C)C [docetaxel] |  | 0.17 (≈ 0.21 nM) | 0.25 (≈ 0.309 nM) | 0.13 (≈ 0.161 nM) | 0.0033 (≈ 0.00408 nM) | 0.0028 (≈ 0.00347 nM) | 0.0012 (≈ 0.00149 nM) | 0.0025 (≈ 0.00309 nM) | 0.0072 (≈ 0.00891 nM) | 0.0023 (≈ 0.00285 nM) | 0.0087 (≈ 0.0108 nM) | 0.0071 (≈ 0.00879 nM) | 0.0006 (≈ 0.000743 nM) | 0.0055 (≈ 0.00681 nM) | 0.0072 (≈ 0.00891 nM) | 0.47 (≈ 0.582 nM) | 0.5 (≈ 0.619 nM) | 0.38 (≈ 0.47 nM) | 0.005 (≈ 0.00619 nM) | acute hypersensitivity reaction, patients [13]: 13%; severe hypersensitivity reaction, patients [13]: 1.2% |
